# Where two headings read alike, the source gives them in different places.
# Experiments:
# adrenergic β3 = adrenergic β3 (Homo sapiens, UniProt P13945); experiment: radioligand binding assay, adrenergic β3
# Method: (§1) Routine radioligand binding assays were performed using reference standards according to established methodology. IC50 values were determined by a non-linear least square regression analysis.
# [1] = molecular target: gamma aminobutyric acid GABAB (Homo sapiens, UniProt Q9UBS5); experiment: radioligand binding assay, GABAB
# [2] = molecular target: vasoactive intestinal peptide (VIP1) (Homo sapiens, UniProt P32241); experiment: radioligand binding assay, VIP1
# vasoactive intestinal peptide (VIP1), sequence (P32241 31-457): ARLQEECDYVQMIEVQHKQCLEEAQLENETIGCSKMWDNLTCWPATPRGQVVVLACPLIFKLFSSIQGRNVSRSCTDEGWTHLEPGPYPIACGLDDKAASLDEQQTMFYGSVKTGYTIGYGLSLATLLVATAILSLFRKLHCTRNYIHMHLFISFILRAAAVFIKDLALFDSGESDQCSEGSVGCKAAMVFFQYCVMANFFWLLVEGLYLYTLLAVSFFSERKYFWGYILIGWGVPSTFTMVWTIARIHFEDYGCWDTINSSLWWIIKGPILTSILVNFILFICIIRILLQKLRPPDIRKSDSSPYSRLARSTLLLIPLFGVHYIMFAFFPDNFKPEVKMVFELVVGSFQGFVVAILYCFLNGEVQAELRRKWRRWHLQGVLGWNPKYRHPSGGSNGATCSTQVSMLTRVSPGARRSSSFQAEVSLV
# Adrenergic α1A = Adrenergic α1A (Homo sapiens, UniProt P35348); experiment: radioligand binding assay, Adrenergic α1A
# Method: as §1
# neuropeptide Y NPY2 = neuropeptide Y NPY2 (Homo sapiens, UniProt P49146); experiment: radioligand binding assay, neuropeptide Y NPY2
# neuropeptide Y NPY2, sequence (P49146 whole entry): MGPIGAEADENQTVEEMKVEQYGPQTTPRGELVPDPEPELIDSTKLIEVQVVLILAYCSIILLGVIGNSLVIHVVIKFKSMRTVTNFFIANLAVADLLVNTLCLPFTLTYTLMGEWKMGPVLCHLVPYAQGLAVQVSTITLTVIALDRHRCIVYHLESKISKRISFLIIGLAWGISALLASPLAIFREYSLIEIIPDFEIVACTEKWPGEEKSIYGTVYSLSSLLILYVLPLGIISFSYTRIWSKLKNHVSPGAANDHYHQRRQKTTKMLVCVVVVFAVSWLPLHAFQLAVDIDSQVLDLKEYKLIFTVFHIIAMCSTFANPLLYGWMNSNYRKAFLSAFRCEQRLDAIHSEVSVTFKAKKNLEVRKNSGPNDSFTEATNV
# Method: as §1
# Serotonin 5-HT7 = Serotonin 5-HT7 (Homo sapiens, UniProt P34969); experiment: radioligand binding assay, Serotonin 5-HT7
# Method: as §1
# dopamine D4.4 = dopamine D4.4 (Homo sapiens, UniProt P21917); experiment: radioligand binding assay, dopamine D4.4
# dopamine D4.4, sequence (P21917 whole entry): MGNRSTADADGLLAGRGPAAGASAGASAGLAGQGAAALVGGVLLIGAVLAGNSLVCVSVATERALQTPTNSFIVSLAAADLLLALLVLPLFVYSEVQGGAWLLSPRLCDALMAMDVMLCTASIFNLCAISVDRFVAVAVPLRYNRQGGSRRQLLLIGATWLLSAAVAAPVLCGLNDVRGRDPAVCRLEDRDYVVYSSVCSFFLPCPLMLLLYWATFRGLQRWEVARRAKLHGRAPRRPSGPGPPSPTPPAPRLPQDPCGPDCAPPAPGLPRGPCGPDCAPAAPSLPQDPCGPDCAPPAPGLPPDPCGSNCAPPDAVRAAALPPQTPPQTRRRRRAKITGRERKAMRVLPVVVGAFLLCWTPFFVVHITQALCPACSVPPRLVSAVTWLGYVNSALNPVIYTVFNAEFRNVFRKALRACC
# Method: as §1
# Serotonin 5-HT1D = Serotonin 5-HT1D (Homo sapiens, UniProt P28221); experiment: radioligand binding assay, Serotonin 5-HT1D
# Method: as §1
# muscarinic M4 = muscarinic M4 (Homo sapiens, UniProt P08173); experiment: radioligand binding assay, muscarinic M4
# nitric oxide synthetase = experiment: activity of nitric oxide synthetase; assay type: biochemical
# opiate κ = opiate κ (Homo sapiens, UniProt P41145); experiment: radioligand binding assay, opiate κ
# Method: as §1
# [3] = test system: gamma aminobutyric acid GABAA; experiment: radioligand binding assay, GABAA
# tachykinin NK2 = tachykinin NK2 (Homo sapiens, UniProt P21452); experiment: radioligand binding assay, tachykinin NK2
# dopamine D4.7 = experiment: radioligand binding assay, dopamine D4.7
# Method: as §1
# muscarinic M5 = muscarinic M5 (Homo sapiens, UniProt P08912); experiment: radioligand binding assay, muscarinic M5
# muscarinic M5, sequence (P08912 whole entry): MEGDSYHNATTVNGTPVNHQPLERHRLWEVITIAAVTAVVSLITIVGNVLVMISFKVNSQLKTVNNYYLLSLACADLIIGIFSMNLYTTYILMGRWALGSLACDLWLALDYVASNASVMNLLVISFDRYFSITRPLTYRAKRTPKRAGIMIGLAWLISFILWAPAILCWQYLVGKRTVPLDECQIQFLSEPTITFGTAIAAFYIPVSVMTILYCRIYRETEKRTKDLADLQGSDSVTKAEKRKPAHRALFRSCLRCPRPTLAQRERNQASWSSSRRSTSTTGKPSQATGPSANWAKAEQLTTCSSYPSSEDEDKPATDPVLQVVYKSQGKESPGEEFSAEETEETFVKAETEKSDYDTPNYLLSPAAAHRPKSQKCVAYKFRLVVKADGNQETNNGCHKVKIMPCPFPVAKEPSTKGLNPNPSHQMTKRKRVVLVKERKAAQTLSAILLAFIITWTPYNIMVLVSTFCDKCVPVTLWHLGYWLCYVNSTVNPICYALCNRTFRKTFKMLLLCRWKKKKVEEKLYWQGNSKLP
# tachykinin NK1 = tachykinin NK1 (Homo sapiens, UniProt P25103); experiment: radioligand binding assay, tachykinin NK1
# tachykinin NK1, sequence (P25103 whole entry): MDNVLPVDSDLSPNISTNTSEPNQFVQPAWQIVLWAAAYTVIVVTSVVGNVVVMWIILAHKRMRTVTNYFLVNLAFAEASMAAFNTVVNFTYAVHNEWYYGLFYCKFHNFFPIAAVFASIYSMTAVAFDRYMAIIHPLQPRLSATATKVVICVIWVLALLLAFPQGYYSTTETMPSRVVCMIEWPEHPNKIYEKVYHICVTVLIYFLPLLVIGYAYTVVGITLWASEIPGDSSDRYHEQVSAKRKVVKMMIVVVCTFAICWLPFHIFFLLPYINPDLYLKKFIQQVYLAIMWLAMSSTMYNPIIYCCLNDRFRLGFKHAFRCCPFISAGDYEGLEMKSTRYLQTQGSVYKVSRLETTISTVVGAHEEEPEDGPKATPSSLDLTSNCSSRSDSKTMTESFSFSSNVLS
# Adrenergic α2A = Adrenergic α2A (Homo sapiens, UniProt P08913); experiment: radioligand binding assay, Adrenergic α2A
# Adrenergic α2A, sequence (P08913 whole entry): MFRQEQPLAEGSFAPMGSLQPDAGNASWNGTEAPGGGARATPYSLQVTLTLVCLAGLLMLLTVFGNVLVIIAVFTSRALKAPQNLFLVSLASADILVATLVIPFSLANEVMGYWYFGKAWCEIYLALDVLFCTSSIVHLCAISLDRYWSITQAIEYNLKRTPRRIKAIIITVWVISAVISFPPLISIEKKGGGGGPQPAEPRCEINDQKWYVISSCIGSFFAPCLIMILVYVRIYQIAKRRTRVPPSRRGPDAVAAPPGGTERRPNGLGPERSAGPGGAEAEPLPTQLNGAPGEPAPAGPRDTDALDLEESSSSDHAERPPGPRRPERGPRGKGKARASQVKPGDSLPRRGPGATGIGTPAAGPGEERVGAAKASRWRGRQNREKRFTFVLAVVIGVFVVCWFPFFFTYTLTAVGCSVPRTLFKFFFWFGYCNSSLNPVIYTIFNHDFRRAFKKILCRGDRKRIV
# Method: as §1
# Adrenergic α1B = Adrenergic α1B (Homo sapiens, UniProt P35368); experiment: radioligand binding assay, Adrenergic α1B
# adrenergic β1 = adrenergic β1 (Homo sapiens, UniProt P08588); experiment: radioligand binding assay, adrenergic β1
# Method: as §1
# tachykinin NK3 = tachykinin NK3 (Homo sapiens, UniProt P29371); experiment: radioligand binding assay, tachykinin NK3
# muscarinic M3 = muscarinic M3 (Homo sapiens, UniProt P20309); experiment: radioligand binding assay, muscarinic M3
# Method: as §1
# opiate δ = opiate δ (Homo sapiens, UniProt P41143); experiment: radioligand binding assay, opiate δ
# Method: as §1
# Serotonin 5-HT1B = Serotonin 5-HT1B (Homo sapiens, UniProt P28222); experiment: radioligand binding assay, Serotonin 5-HT1B
# Serotonin 5-HT1B, sequence (P28222 whole entry): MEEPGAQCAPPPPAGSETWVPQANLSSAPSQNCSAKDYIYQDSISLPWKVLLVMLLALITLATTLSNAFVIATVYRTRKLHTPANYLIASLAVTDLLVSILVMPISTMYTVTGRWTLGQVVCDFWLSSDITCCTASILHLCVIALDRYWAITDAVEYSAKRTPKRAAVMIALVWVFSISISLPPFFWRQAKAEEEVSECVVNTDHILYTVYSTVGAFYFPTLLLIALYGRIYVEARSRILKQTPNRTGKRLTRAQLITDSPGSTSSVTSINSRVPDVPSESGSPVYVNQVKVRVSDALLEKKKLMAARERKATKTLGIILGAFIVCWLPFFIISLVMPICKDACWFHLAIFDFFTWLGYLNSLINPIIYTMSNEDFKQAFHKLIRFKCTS
# adrenergic β2 = adrenergic β2 (Homo sapiens, UniProt P07550); experiment: radioligand binding assay, adrenergic β2
# Method: as §1
# neuropeptide Y NPY1 = neuropeptide Y NPY1 (Homo sapiens, UniProt P25929); experiment: radioligand binding assay, neuropeptide Y NPY1
# neuropeptide Y NPY1, sequence (P25929 whole entry): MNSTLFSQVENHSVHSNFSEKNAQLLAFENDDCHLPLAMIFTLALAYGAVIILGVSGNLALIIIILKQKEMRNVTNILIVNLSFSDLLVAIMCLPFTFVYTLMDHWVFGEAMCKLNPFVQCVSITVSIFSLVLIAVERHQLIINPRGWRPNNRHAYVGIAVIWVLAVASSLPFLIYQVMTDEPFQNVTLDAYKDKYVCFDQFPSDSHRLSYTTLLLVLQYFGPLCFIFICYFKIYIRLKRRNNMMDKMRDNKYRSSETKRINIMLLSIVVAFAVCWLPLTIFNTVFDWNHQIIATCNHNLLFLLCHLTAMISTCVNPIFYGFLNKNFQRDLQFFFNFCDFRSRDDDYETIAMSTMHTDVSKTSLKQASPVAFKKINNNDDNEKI
# Method: as §1
# Serotonin 5-HT2A = Serotonin 5-HT2A (Homo sapiens, UniProt P28223); experiment: radioligand binding assay, Serotonin 5-HT2A
# Serotonin 5-HT2A, sequence (P28223 whole entry): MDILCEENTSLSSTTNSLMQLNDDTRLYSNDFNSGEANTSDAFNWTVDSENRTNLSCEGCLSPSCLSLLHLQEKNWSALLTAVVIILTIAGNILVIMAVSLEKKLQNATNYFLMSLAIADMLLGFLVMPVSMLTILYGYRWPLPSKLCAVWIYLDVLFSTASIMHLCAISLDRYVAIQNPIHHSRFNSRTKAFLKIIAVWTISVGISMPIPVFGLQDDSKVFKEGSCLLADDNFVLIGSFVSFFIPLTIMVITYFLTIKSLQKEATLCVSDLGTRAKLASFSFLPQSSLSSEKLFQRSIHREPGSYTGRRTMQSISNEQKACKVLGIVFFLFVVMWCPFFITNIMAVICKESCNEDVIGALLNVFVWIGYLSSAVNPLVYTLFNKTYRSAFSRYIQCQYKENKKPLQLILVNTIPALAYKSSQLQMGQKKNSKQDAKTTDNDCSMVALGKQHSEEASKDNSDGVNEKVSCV
# Method: as §1
# [4] = molecular target: calcitonin gene related peptide (CGRP) (Homo sapiens, UniProt O60894+Q16602); experiment: radioligand binding assay, CGRP
# calcitonin gene related peptide (CGRP), sequence (Q16602 23-461): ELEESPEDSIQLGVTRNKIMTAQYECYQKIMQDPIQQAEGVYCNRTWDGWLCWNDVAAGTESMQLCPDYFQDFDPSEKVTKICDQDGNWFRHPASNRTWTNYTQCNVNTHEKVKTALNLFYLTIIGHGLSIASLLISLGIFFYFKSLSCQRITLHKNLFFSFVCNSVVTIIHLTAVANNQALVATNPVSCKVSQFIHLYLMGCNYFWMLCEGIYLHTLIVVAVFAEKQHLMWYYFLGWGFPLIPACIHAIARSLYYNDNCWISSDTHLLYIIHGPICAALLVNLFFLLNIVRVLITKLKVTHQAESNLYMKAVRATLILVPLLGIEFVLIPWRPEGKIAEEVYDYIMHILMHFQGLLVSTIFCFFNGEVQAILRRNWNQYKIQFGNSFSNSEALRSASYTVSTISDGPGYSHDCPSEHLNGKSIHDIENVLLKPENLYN
# calcitonin gene related peptide (CGRP), sequence (O60894 27-148 partner): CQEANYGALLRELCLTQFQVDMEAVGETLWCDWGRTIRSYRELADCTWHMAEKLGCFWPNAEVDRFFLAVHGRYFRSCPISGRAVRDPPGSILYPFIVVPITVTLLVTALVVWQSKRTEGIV
# Serotonin 5-HT2 = experiment: radioligand binding assay, Serotonin 5-HT2
# serotonin 5-HT4 = serotonin 5-HT4 (Homo sapiens, UniProt Q13639); experiment: radioligand binding assay, serotonin 5-HT4
# dopamine D4.2 = experiment: radioligand binding assay, dopamine D4.2
# Method: as §1
# Adrenergic α2C = Adrenergic α2C (Homo sapiens, UniProt P18825); experiment: biochemical
# Method: as §1
# Serotonin 5-HT6 = Serotonin 5-HT6 (Homo sapiens, UniProt P50406); experiment: radioligand binding assay, Serotonin 5-HT6
# Serotonin 5-HT6, sequence (P50406 whole entry): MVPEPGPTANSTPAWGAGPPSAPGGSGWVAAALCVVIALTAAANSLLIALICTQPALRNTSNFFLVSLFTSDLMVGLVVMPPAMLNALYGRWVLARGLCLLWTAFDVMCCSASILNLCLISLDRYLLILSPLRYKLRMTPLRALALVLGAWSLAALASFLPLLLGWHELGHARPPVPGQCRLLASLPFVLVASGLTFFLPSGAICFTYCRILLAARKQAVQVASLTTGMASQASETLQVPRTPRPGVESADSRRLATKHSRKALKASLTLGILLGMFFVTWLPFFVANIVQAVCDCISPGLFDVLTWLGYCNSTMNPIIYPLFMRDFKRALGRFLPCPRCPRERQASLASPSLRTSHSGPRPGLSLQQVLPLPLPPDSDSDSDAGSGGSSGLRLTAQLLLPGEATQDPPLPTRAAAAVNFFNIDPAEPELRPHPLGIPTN
# muscarinic M2 = muscarinic M2 (Homo sapiens, UniProt P08172); experiment: radioligand binding assay, muscarinic M2
# Method: as §1
# nicotinic = experiment: radioligand binding assay, nicotinic
# Opiate μ = Opiate μ (Homo sapiens, UniProt P35372); experiment: radioligand binding assay, Opiate μ
# Method: as §1
# muscarinic M1 = muscarinic M1 (Homo sapiens, UniProt P11229); experiment: radioligand binding assay, muscarinic M1
# Method: as §1
# Dopamine D3 = Dopamine D3 (Homo sapiens, UniProt P35462); experiment: radioligand binding assay, Dopamine D3
# Method: as §1
# Serotonin 5-HT1A = Serotonin 5-HT1A (Homo sapiens, UniProt P08908); experiment: radioligand binding assay, Serotonin 5-HT1A
# Method: as §1
# Dopamine D2S = Dopamine D2S (Homo sapiens, UniProt P14416); experiment: radioligand binding assay, Dopamine D2S
# Method: as §1
# Adrenergic α2B = Adrenergic α2B (Homo sapiens, UniProt P18089); experiment: radioligand binding assay, Adrenergic α2B
# Method: as §1
SMILES,binding activity (adrenergic β3),binding activity [1],binding activity [2],Ki (Adrenergic α1A) [nM],binding activity (neuropeptide Y NPY2),binding activity (dopamine D4.4),binding activity (muscarinic M4),effect on the activity of nitric oxide synthetase (nitric oxide synthetase),binding activity [3],binding activity (tachykinin NK2),binding activity (dopamine D4.7),binding activity (muscarinic M5),binding activity (tachykinin NK1),binding activity (adrenergic β1),binding activity (tachykinin NK3),binding activity (muscarinic M3),Ki (Serotonin 5-HT1B) [nM],binding activity (adrenergic β2),binding activity (neuropeptide Y NPY1),binding activity [4],other results
"CN1CCc2cccc3c2[C@H]1Cc1ccc(O)c(O)c1-3 [Apomorphine, (R)-5,6,6a,7-tetrahydro-6-methyl-4H-dibenzo-[de,g]quinoline-10,11-diol]",No significant binding activity,No significant binding activity,No significant binding activity,343,No significant binding activity,No significant binding activity,No significant binding activity,neither apomorphine nor its metabolite norapomorphine demonstrated any significant effect,No significant binding activity,No significant binding activity,No significant binding activity,No significant binding activity,No significant binding activity,No significant binding activity,No significant binding activity,No significant binding activity,205,No significant binding activity,No significant binding activity,No significant binding activity,Ki (Serotonin 5-HT7): 65 nM; Ki (Serotonin 5-HT1D): 288 nM; binding activity (opiate κ): No significant binding activity; Ki (Adrenergic α2A): 71 nM; Ki (Adrenergic α1B): 882 nM; binding activity (opiate δ): No significant binding activity; Ki (Serotonin 5-HT2A): 27 nM; Ki (Serotonin 5-HT2; read-out: Ki): 111 nM; binding activity (serotonin 5-HT4): No significant binding activity; binding activity (dopamine D4.2): No significant binding activity; Ki (Adrenergic α2C): 19 nM; Ki (Serotonin 5-HT6): 206 nM; binding activity (muscarinic M2): No significant binding activity; binding activity (nicotinic): No significant binding activity; binding activity (Opiate μ): No significant binding activity
"Oc1ccc2c(c1O)-c1cccc3c1C(C2)NCC3 (stereo not shown) [Norapomorphine, norapomorphine]",did not bind significantly,did not bind significantly,did not bind significantly,4170,did not bind significantly,did not bind significantly,did not bind significantly,neither apomorphine nor its metabolite norapomorphine demonstrated any significant effect,did not bind significantly,did not bind significantly,did not bind significantly,did not bind significantly,did not bind significantly,did not bind significantly,did not bind significantly,did not bind significantly,3560,did not bind significantly,did not bind significantly,did not bind significantly,"Ki (Serotonin 5-HT7; Serotonin 5-HT7, read-out: Ki): 1380 nM; binding activity (muscarinic M1): did not bind significantly; Ki (Dopamine D3): 117 nM; Ki (Serotonin 5-HT1A): 439 nM; Ki (Adrenergic α2A; Adrenergic α2A, read-out: Ki): 1430 nM; Ki (Serotonin 5-HT2A; Serotonin 5-HT2A, read-out: Ki): 1120 nM; Ki (Serotonin 5-HT2): N/S (N/S = no significant activity (≧50% at 10 μM)); binding activity (serotonin 5-HT4): did not bind significantly; Ki (Dopamine D2S): 1100 nM; binding activity (dopamine D4.2): did not bind significantly; Ki (Adrenergic α2B): 213 nM; Ki (Serotonin 5-HT6): 1670 nM; binding activity (muscarinic M2): did not bind significantly; binding activity (nicotinic): did not bind significantly; Ki (Opiate μ): 2090 nM"
